# Columns and labels:
# Type in all cases: biochemical
# [1] = target: T1, KLK14 (Homo sapiens, UniProt Q9P0G3); test: KLK14 enzyme inhibition assay, fluorogenic substrate Boc-Val-Pro-Arg-AMC; conditions: for inhibition at 50 µM / inhibition at 100 µM / IC50: 37° C., 15 min of incubation, pH 8; for selective activity against enzyme: KLK14: Table B, among KLK5, KLK7 and KLK14; for IC50: Table A, read-out: IC50 (μM) KLK14
# T1 sequence (Q9P0G3 25-251): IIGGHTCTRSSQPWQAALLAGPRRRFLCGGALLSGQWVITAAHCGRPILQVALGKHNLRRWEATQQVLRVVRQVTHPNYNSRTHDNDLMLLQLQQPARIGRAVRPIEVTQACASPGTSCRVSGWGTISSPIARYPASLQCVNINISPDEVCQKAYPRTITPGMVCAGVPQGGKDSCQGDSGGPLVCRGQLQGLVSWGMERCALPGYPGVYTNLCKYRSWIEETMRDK
# Procedure: (§1) Kallikreins KLK5, KLK7 and KLK14 activities were determined by monitoring the hydrolysis of the appropriate fluorogenic substrate (λexc=355, λem=460 nm) for 15 min at 37° C. in the presence of the untreated kallikrein (control) or kallikrein that had been incubated with a test compound. Substrate and compounds were previously dissolved in DMSO, with the final solvent concentration kept constant at 2% (v/v) (KLK 5 and 14), and 4% (v/v) (KLK7). The composition of the activity buffers (pH 8.0) was 100 mM Tris-HCl, 150 mM NaCl, 0.01% (v/v) Tween 20 for the KLK5 assay, and 100 mM Tris-HCl, 1M NaCl, 0.01% (v/v) Tween 20 in the KLK 7 and 14 assays. The final concentrations were 0.6 nM (KLK5) and 100 μM (Boc-Val-Pro-Arg-AMC) (KLK5 assay), 8 nM (KLK7) and 40 μM (Suc-Leu-Leu-Val-Tyr-AMC, AMC: 7-amino-4-methyl-coumarin) (KLK7 assay), and 0.17 nM (KLK14) and 10 μM (Boc-Val-Pro-Arg-AMC) (KLK14 assay). Using the appropriate substrate, the coumarinic compounds (0.01-100 μM) were tested in duplicate for each inhibitor concentration to detect their inhibitory potential. The enzyme and the inhibitors were incubated for 15 min before the determination of the enzyme activity. Initial rates determined in control experiments (V0) were considered to be 100% of the peptidase activity; initial rates below 100% were considered to be inhibitions. The inhibitory activity of compounds was expressed as IC50 (inhibitor concentrations giving 50% inhibition). The values of IC50 were calculated by fitting the experimental data to the equation: % Inhibition=100×(1−Vi/V0)=100[I]0/(IC50+[I]0), or equation: % Inhibition=100[I]0^nH/(IC50^nH+[I]0^nH),nH is the Hill number.
# (§2) The tests were realized at 37° C. after 15 min of incubation at pH 8.
# [2] = target: KLK7 (Homo sapiens, UniProt P49862); test: KLK7 enzyme inhibition assay, fluorogenic substrate Suc-Leu-Leu-Val-Tyr-AMC; conditions: for inhibition at 10 µM / IC50 / inhibition at 50 µM / inhibition at 100 µM: 37° C., 15 min of incubation, pH 8; for selective activity against enzyme: KLK7: Table B, among KLK5, KLK7 and KLK14; for IC50: Table A, read-out: IC50 (μM) KLK7
# Procedure: as §1, §2
# [3] = target: T2, KLK5 (Homo sapiens, UniProt Q9Y337); test: KLK5 enzyme inhibition assay, fluorogenic substrate Boc-Val-Pro-Arg-AMC; conditions: for inhibition at 50 µM / IC50 / inhibition at 100 µM: 37° C., 15 min of incubation, pH 8; for selective activity against enzyme: KLK5: Table B, among KLK5, KLK7 and KLK14; for IC50: Table A, read-out: IC50 (μM) KLK5
# T2 sequence (Q9Y337 23-293): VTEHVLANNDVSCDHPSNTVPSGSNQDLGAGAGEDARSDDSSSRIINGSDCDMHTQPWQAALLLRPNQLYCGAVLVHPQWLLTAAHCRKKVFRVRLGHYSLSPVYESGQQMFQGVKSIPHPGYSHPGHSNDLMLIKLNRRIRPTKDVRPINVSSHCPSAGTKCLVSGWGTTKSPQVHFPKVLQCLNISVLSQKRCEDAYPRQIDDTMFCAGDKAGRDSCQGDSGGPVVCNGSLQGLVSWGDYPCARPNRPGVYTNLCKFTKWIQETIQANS
# Procedure: as §1, §2
# KLK7, sequence (P49862 30-253): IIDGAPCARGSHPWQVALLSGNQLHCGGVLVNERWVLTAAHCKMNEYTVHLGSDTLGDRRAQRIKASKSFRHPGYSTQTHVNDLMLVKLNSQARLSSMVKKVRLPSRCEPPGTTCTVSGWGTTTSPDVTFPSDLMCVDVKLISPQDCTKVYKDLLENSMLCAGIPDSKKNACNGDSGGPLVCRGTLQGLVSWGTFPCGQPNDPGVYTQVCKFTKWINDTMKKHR
structure (smiles),measurement,setting,value
"CC(=O)OCc1ccc2oc(=O)c(C(=O)Oc3ccccc3C#N)cc2c1 [SMB33, 2-cyanophenyl 6-acetoxymethyl-2-oxo-2H-1-benzopyran-3-carboxylate]",inhibition at 50 µM,[1],27%
same,selective activity against enzyme: KLK14,[1],KLK14
CC(=O)NCc1ccc2oc(=O)c(C(=O)Oc3cccc(Cl)c3)cc2c1 [IK53],inhibition at 10 µM,[2],54%
same,selective activity against enzyme: KLK7,[2],KLK7
"CC(=O)OCc1ccc2oc(=O)c(C(=O)Oc3ccccc3I)cc2c1 [SMB28, 2-iodophenyl 6-acetoxymethyl-2-oxo-2H-1-benzopyran-3-carboxylate]",IC50,[2],82.2 ± 13.2 µM
same,selective activity against enzyme: KLK7,[2],KLK7
CC(=O)OCc1ccc2oc(=O)c(C(=O)Oc3cccc(Br)c3)cc2c1 [IK9],inhibition at 50 µM,[3],22%
same,selective activity against enzyme: KLK5,[3],KLK5
NCc1ccc2oc(=O)c(C(=O)Oc3ccccc3)cc2c1 [LP71],IC50,[3],182 ± 14 µM
CC(=O)c1cc2cc(C)ccc2oc1=O [Compound D9],inhibition at 100 µM,[1],40%
same,inhibition at 100 µM,[3],80%
same,selective activity against enzyme: KLK5,[3],KLK5
CC(=O)OCc1ccc2oc(=O)c(C(=O)Oc3cccc(F)c3)cc2c1 [IK10],inhibition at 50 µM,[3],23%
same,selective activity against enzyme: KLK5,[3],KLK5
O=C(Oc1c(Cl)cccc1Cl)c1cc2cc(CCl)ccc2oc1=O [LP72],inhibition at 100 µM,[1],50%
same,IC50,[2],0.495 ± 0.037 µM
same,selective activity against enzyme: KLK7,[2],KLK7
same,IC50,[3],59 ± 9 µM
O=C(Oc1cc(F)ccc1[N+](=O)[O-])c1cc2cc(CCl)ccc2oc1=O [CFL16],inhibition at 100 µM,[1],73%
same,IC50,[2],0.9 ± 0.4 µM
same,inhibition at 100 µM,[3],40%
O=C(Oc1cc(Cl)ccc1Cl)c1cc2cc(CCl)ccc2oc1=O [LP74],IC50,[1],54 ± 6 µM
same,IC50,[2],0.195 ± 0.024 µM
same,selective activity against enzyme: KLK7,[2],KLK7
same,IC50,[3],1.3 ± 0.2 µM
O=C(Oc1ccc(I)cc1)c1cc2cc(CCl)ccc2oc1=O [LP16],inhibition at 50 µM,[2],47%
O=C(Oc1cc([N+](=O)[O-])ccc1[N+](=O)[O-])c1cc2cc(CCl)ccc2oc1=O [CFL21],inhibition at 100 µM,[1],43%
same,selective activity against enzyme: KLK14,[1],KLK14
same,inhibition at 100 µM,[2],22%
same,IC50,[3],121 µM
COC(=O)c1ccccc1OC(=O)c1cc2cc(COC(C)=O)ccc2oc1=O [IK8],inhibition at 100 µM,[1],64%
same,IC50,[2],64.3 ± 2.7 µM
same,IC50,[3],~40 µM
O=C(Oc1cc(F)ccc1Br)c1cc2cc(CCl)ccc2oc1=O [CFL15],inhibition at 100 µM,[1],45%
same,IC50,[2],0.352 ± 0.055 µM
same,selective activity against enzyme: KLK7,[2],KLK7
same,inhibition at 100 µM,[3],47%
CS(=O)(=O)NCc1ccc2oc(=O)c(C(=O)Oc3cccc(Cl)c3)cc2c1 [MH24],inhibition at 50 µM,[1],42%
same,IC50,[2],33.2 ± 1.4 µM
CC(=O)NCc1ccc2oc(=O)c(C(=O)Oc3ccc(Br)cc3)cc2c1 [MH52],inhibition at 10 µM,[2],58%
same,selective activity against enzyme: KLK7,[2],KLK7
CC(=O)NCc1ccc2oc(=O)c(C(=O)Oc3cccc(Br)c3)cc2c1 [IK49],inhibition at 10 µM,[2],54%
same,selective activity against enzyme: KLK7,[2],KLK7
O=C(Oc1cc(F)ccc1F)c1cc2ccccc2oc1=O [CFL7],inhibition at 100 µM,[1],33%
same,inhibition at 100 µM,[2],33%
Cc1ccc2oc(=O)c(C(=O)Oc3cc(F)ccc3[N+](=O)[O-])cc2c1 [CFL25],IC50,[1],68 ± 9 µM
same,IC50,[3],44 ± 10 µM
O=C(Oc1cccc(F)c1)c1cc2cc(CCl)ccc2oc1=O [LP51],inhibition at 100 µM,[1],30%
same,IC50,[2],0.25 ± 0.01 µM
same,selective activity against enzyme: KLK7,[2],KLK7
same,inhibition at 50 µM,[3],26%
COC(=O)c1ccccc1OC(=O)c1cc2cc(CCl)ccc2oc1=O [IK1],IC50,[1],38 ± 5 µM
same,IC50,[2],2.7 ± 0.1 µM
same,IC50,[3],26.3 ± 1.4 µM
O=C(Oc1ccccc1Cl)c1cc2cc(O)ccc2oc1=O [MH14],inhibition at 50 µM,[2],35%
same,selective activity against enzyme: KLK7,[2],KLK7
CCC(=O)OCc1ccc2oc(=O)c(C(=O)Oc3cncc(Cl)c3)cc2c1 [LP42],inhibition at 100 µM,[2],52%
same,selective activity against enzyme: KLK7,[2],KLK7
same,inhibition at 50 µM,[3],22%
COC(=O)c1cc2cc(CCl)ccc2oc1=O [MFS2],IC50,[1],73 ± 14 µM
same,IC50,[2],26.8 ± 1.5 µM
same,IC50,[3],54 ± 2 µM
CC(=O)OCc1ccc2oc(=O)c(C(=O)Oc3cc(Cl)ccc3Cl)cc2c1 [CFL4],inhibition at 50 µM,[1],60%
same,IC50,[2],5.01 ± 0.4 µM
O=C(Oc1ccccc1)c1cc2cc(O)ccc2oc1=O [MH8],inhibition at 50 µM,[2],25%
same,selective activity against enzyme: KLK7,[2],KLK7
Cc1cc(OC(=O)c2cc3cc(CCl)ccc3oc2=O)ccc1Cl [MFS35],inhibition at 100 µM,[1],71%
same,selective activity against enzyme: KLK14,[1],KLK14
same,inhibition at 100 µM,[2],55%
CCOC(=O)c1cc2cc(CCl)ccc2oc1=O [MFS3],inhibition at 100 µM,[1],48%
same,IC50,[2],20.9 ± 0.9 µM
same,inhibition at 50 µM,[3],39%
NCc1ccc2oc(=O)c(C(=O)Oc3cccc(Br)c3)cc2c1 [IK48],inhibition at 50 µM,[1],32%
same,IC50,[2],9.7 ± 1.3 µM
same,inhibition at 50 µM,[3],27%
O=C(Oc1cc(Cl)cc(Cl)c1)c1cc2cc(CCl)ccc2oc1=O [LP75],IC50,[2],0.136 ± 0.012 µM
same,IC50,[3],80 ± 8 µM
CC(=O)OCc1ccc2oc(=O)c(C(=O)Oc3cccc(Cl)c3)cc2c1 [LP46],IC50,[1],31 ± 6 µM
same,inhibition at 50 µM,[3],31%
O=C(Oc1ccccc1[N+](=O)[O-])c1cc2cc(CCl)ccc2oc1=O [LP60],inhibition at 100 µM,[1],46%
same,IC50,[2],1.44 ± 0.02 µM
same,IC50,[3],112 ± 6 µM
COC(=O)c1ccc(OC(=O)c2cc3cc(CCl)ccc3oc2=O)cc1 [IK13],inhibition at 100 µM,[1],72%
same,selective activity against enzyme: KLK14,[1],KLK14
same,inhibition at 100 µM,[2],34%
CC(=O)OCc1ccc2oc(=O)c(C(=O)Oc3cc(F)ccc3Br)cc2c1 [CFL17],inhibition at 50 µM,[1],50%
same,selective activity against enzyme: KLK14,[1],KLK14
same,inhibition at 100 µM,[2],33%
O=C(O)c1ccc(Cl)cc1OC(=O)c1cc2cc(CCl)ccc2oc1=O [IK5],IC50,[1],89 ± 10 µM
same,IC50,[2],5.8 ± 0.2 µM
same,IC50,[3],36.9 ± 4.2 µM
O=C(Oc1cncc(Cl)c1)c1cc2cc(CCl)ccc2oc1=O [LP2],IC50,[2],0.128 ± 0.03 µM
same,selective activity against enzyme: KLK7,[2],KLK7
CC(=O)OCc1ccc2oc(=O)c(C(=O)Oc3ccccc3Cl)cc2c1 [SMB27],inhibition at 50 µM,[1],27%
same,inhibition at 50 µM,[2],42%
O=C(Oc1ccccc1I)c1cc2cc(CCl)ccc2oc1=O [LP15],inhibition at 100 µM,[1],35%
same,IC50,[2],1.9 ± 0.1 µM
CC(=O)OCc1ccc2oc(=O)c(C(=O)Oc3ccccc3Br)cc2c1 [SMB26],inhibition at 10 µM,[2],52%
same,selective activity against enzyme: KLK7,[2],KLK7

# — patent US9814696B2, “Use of coumarin derivatives for the preparation of drugs for treating skin diseases” (UNIVERSITE PIERRE ET MARIE CURIE (PARIS 6), priority 2011, dated 2017)
